{
  "source": "paper PMC6348444",
  "about": "“New Water-Soluble Copper(II) Complexes with Morpholine–Thiosemicarbazone Hybrids: Insights into the Anticancer and Antibacterial Mode of Action” (Journal of Medicinal Chemistry, 2018)",
  "key": {"A2780cisR cells": {"tested_on": "A2780cisR cells", "test": "MTT cytotoxicity assay, A2780cisR", "type": "cell-based, human", "details": "for RF (resistance factor): IC50(A2780cisR)/IC50(A2780); for IC50: MTT assay, 72 h exposure, cisplatin-resistant A2780cisR, read-out: IC50 A2780cis"}, "Solubility in water": {"test": "Solubility in water", "type": "physicochemical", "details": "sterile water stock solutions", "method": "Human ovarian carcinoma cells A2780 and A2780cisR and human embryonic kidney HEK293 were obtained from ATCC. A2780 and A2780cisR cells were cultured in RPMI 1640 medium containing 10% FBS. HEK293 were cultured in DMEM medium containing 10% FBS. All cells were grown in tissue culture 25 cm^2 flasks (BD Biosciences, Singapore) at 37 °C in a humidified atmosphere of 95% air and 5% CO2. All drug stock solutions were prepared in sterile water. The amount of Cu was determined by ICP–OES."}, "mouse R2 RNR protein": {"target": "T1, mouse R2 RNR protein (Mus musculus, UniProt P11157)", "T1 construct": "made in house; host or cells: Escherichia coli", "T1 sequence (P11157 1-390)": "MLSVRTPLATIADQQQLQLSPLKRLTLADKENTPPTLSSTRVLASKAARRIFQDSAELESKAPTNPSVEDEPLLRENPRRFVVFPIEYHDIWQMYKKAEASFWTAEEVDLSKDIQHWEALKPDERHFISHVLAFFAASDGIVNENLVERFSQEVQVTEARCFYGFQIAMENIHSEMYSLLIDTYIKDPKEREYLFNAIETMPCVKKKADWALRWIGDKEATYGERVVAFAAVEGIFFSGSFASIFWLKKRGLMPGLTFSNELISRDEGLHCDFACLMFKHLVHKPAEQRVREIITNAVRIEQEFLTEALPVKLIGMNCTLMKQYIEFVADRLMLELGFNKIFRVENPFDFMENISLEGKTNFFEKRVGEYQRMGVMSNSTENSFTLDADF", "test": "Tyrosyl radical reduction in R2 RNR protein by EPR", "type": "biochemical", "details": "1:1 protein-to-compound ratio, 298 K, presence of DTT, within 90 s", "method": "The effects of the most cytotoxic complexes 2 and 5, and the corresponding proligands HL^2 and HL^5, on the mouse R2 tyrosyl radical were investigated by EPR spectroscopy at 30 K. The proligands and their Cu(II) complexes were incubated with the mouse R2 RNR protein at 1:1 protein-to-compound mole ratio at 298 K in the presence or absence of the reducing agent dithiothreitol (DTT), and the time-dependent reduction of the tyrosyl radical was monitored.[39] Tyrosyl radical reduction by the investigated compounds was observed only in the presence of DTT. Upon incubation with HL^2, HL^5, and 2, 5, 50% of tyrosyl radical was reduced within 90 s, after which no further reduction was observed (Figure S15). […] HL^2 and HL^5 (λmax = 312 and 320 nm, respectively) readily reacted with FeSO4·7H2O affording Fe(II) bis-ligand complexes (λmax = 373, 610 nm and λmax = 385, 645 nm, respectively) at both 1:1 and 1:2 Fe-to-ligand mole ratios. […]\nThe 9.4 GHz EPR spectra were recorded at 30 K on a Bruker EleXsys II E540 EPR spectrometer with an Oxford Instruments ESR900 helium cryostat, essentially as described previously.[51] […]"}, "[1]": {"test": "n-octanol/water distribution coefficient, shake-flask", "type": "physicochemical", "details": "n-octanol/buffered aqueous solution, pH 7.40, UV-vis", "method": "The titrations were carried out under a nitrogen atmosphere."}, "[2]": {"tested_on": "Staphylococcus aureus CECT 86 (ATCC 12600)", "test": "MIC microdilution, S. aureus", "type": "cell-based", "details": "planktonic cells; for S. aureus MIC50: growth inhibited at 50%; for S. aureus MIC100: lowest concentration completely inhibiting growth", "method": "Wild-type P. aeruginosa PAO1 strain CECT 4122 (ATCC 15692) and S. aureus CECT 86 (ATCC 12600) were obtained from the Spanish Type Culture Collection (CECT). All strains were routinely cultivated in TSB medium (Sharlab, Spain) at 37 °C. MIC assays were determined by the microdilution method using TSB broth following the method described by the Clinical and Laboratory standards Institute.[94] In brief, compounds were diluted in a 96-well microtiter plate (tissue culture-treated polystyrene; […]"}},
  "data": [
    {"smiles": "CN(C)C(=NN=Cc1ccc(CN2CCOCC2)cn1)[S][Cu][Cl]", "note": "[complex 2, [Cu(L^2)Cl]]", "values": [
      {"measurement": "RF (resistance factor)", "setting": "A2780cisR cells", "result": 2.5},
      {"measurement": "IC50", "setting": "A2780cisR cells", "result": "0.03 ± 0.003", "unit": "µM"},
      {"measurement": "solubility in water", "setting": "Solubility in water", "result": "≤ 2000", "unit": "µM"},
      {"measurement": "tyrosyl radical reduced", "setting": "mouse R2 RNR protein", "result": 50, "unit": "%"},
      {"measurement": "log D7.4", "setting": "[1]", "result": "+0.30 ± 0.01"},
      {"measurement": "S. aureus MIC50", "setting": "[2]", "result": 2, "unit": "mg/L"},
      {"measurement": "S. aureus MIC100", "setting": "[2]", "result": 10, "unit": "mg/L"}
    ]},
    {"smiles": "[Cl][Cu][S]C(=NN=Cc1ccc(CN2CCOCC2)cn1)Nc1ccccc1", "note": "[complex 5, [Cu(L^5)Cl]]", "values": [
      {"measurement": "RF (resistance factor)", "setting": "A2780cisR cells", "result": 1.9},
      {"measurement": "IC50", "setting": "A2780cisR cells", "result": "0.017 ± 0.002", "unit": "µM"},
      {"measurement": "solubility in water", "setting": "Solubility in water", "result": "≤ 2000", "unit": "µM"},
      {"measurement": "tyrosyl radical reduced", "setting": "mouse R2 RNR protein", "result": 50, "unit": "%"},
      {"measurement": "log D7.4", "setting": "[1]", "result": "+1.49 ± 0.06"},
      {"measurement": "S. aureus MIC50", "setting": "[2]", "result": 3, "unit": "mg/L"},
      {"measurement": "S. aureus MIC100", "setting": "[2]", "result": 10, "unit": "mg/L"}
    ]}
  ]
}
